From paper PMC12124858, “Thymoquinone loaded on chitosan nanoparticles alleviated the consequences of cryptosporidiosis infection in a murine model: Evidence from parasitological, histopathological, immunohistochemical, and immunological studies” (PLOS One, 2025)
Marks after values point to notes of the source that are not given here.

Legend:
[1] = system: IFN-γ; experiment: Serum IFN-γ by ELISA; format: in vivo, Swiss albino mice
Protocol: Immunological measurements: Interleukin-10 (IL-10) and interferon-gamma (IFN-γ) levels in mouse sera were measured. Blood samples were collected in plain tubes from the mice’s retroorbital veins at the indicated time points (14 dpi and 21 dpi). After 30 minutes at room temperature and 15 minutes of centrifugation at 3000 rpm, sera were collected and stored at −20°C. Using an ELISA kit and following the manufacturer’s instructions, the enzyme-linked immunosorbent assay (ELISA) was employed to measure the levels of IFN-γ and IL-10 in the serum (Bioneovan Co.; Ltd, Beijing, China).

[2] = system: Cryptosporidium parvum; experiment: Oocyst shedding in immunosuppressed infected mice; format: in vivo, Swiss albino mice; details: for I % (percent inhibition of oocyst count) / I% (percent inhibition of oocyst count, effectiveness): versus infected untreated group
Protocol: Animals: The study was conducted following approval by the Research Ethics Committee of Zagazig University, Institutional Animal Care and Use Committee (ZU-IACUC), under protocol number ZU-IACUC/2/F/53/2024, following the National Institutes of Health guidelines for animal experimentation. Seventy male laboratory-bred Swiss albino mice free of parasites were included in this study. The mice weighed 20-25 grams at the start of the trial and were between four and six weeks old. They were purchased from the Biological Supply Center of the Theodor Bilharz Research Institute (TBRI). Throughout the trial, the mice were housed in an air-conditioned animal facility maintained at 20-22°C and were provided with a standard commercial pelleted diet and free access to water. […] Immunosuppression: The mice were subjected to immunosuppression by administering dexamethasone (Dexazone, […] Pharmaceuticals, Cairo, Egypt) orally through an esophageal tube at a rate of 0.25 μg/g/day for 14 consecutive days before being inoculated with C. parvum oocysts. Throughout the experiment, the mice received the same dosage of dexamethasone. The infection: In a previous study, we isolated Cryptosporidium oocysts from diarrheal calves and genetically identified them as C. parvum. The 2.5% potassium dichromate solution containing purified oocysts was stored at 4°C until needed. After preparing an infectious inoculum and counting the number of oocysts in the concentrated stock inoculum, the fluid volume of the inoculum per mouse was determined. Oral-gastric gavage was used to infect each mouse orally with C. parvum oocysts. Approximately 3 × 10^3 oocysts/mouse were used to infect each mouse at 0 days post-infection (dpi). […] Thymoquinone loaded on chitosan nanoparticles was given at the same dose for Group VII. Chitosan was administered at 200 mg/kg three times a week, starting at seven dpi for 2 weeks for Group III [36]. Assessments of the drug therapy: Parasitological examination: The mice feces were collected at 7, 14, and 21 dpi. For the oocyst shedding assessment, the number of Cryptosporidium oocysts in the fecal pellets was counted after staining with Kinyoun's acid-fast stain. Fecal samples were collected from each infected mouse. The mean number of oocysts was calculated for each mouse group. After weighing, a milligram of the fecal pellet was placed in 1 milliliter of 10% formalin. Centrifugation concentrated the fecal solution for ten minutes at 7000 rpm. The number of oocysts in one milliliter of the feces sample was calculated using 100 μl of fecal material dried, stained, and observed through an oil immersion lens (x100). The oocyst count was detected and expressed per gram of feces. The effectiveness of each drug was assessed according to [35] and represented as a percentage of reduction using the following formula: Efficacy(%)=100×((infected model group oocyst count-treated model group oocyst count)/(infected model group oocyst count)) %Inhibition = [(mean oocyst count in the infected untreated group - mean oocyst count in the infected treated group)/mean oocyst count in the infected untreated group] × 100

[3] = system: Cryptosporidium parvum; experiment: Histopathological examination of the spleen (H&E); format: in vivo, Swiss albino mice; details: 21 dpi, in words
Protocol: At 21 dpi, the mice were humanely euthanized under light anesthesia induced by isoflurane inhalation (Forane®, Baxter, UK). Representative tissue specimens from all animals’ intestines, livers, and spleens were carefully collected and fixed in a 10% neutral buffered formalin solution for 48 hours. Following fixation, the tissues were dehydrated through a graded series of ethyl alcohol concentrations, cleared in xylene, and subsequently embedded in paraffin wax. Two sections, each 5 µm thick, were obtained from each tissue specimen. The sections were then deparaffinized in xylene and rehydrated through a descending series of alcohol concentrations. After rehydration, the tissue sections were mounted onto histological slides and stained with hematoxylin and eosin (H&E) for microscopic examination. The prepared slides were thoroughly analyzed under a light microscope to identify pathological alterations and evaluate the administered drug’s potential ameliorative effects. This standardized protocol ensured accurate and consistent histological assessment across all samples [39].

[4] = system: L. donovani; parameters: method as in Islamuddin et al. [22]; details: in words; ref Islamuddin et al. [22]; cited from earlier work
[5] = In vitro release study, dialysis method; format: physicochemical; details: PBS pH 6.8, 37°C
Protocol: The THQ release profile from […] […] Briefly, 3 mL of the […] suspension was placed in a dialysis bag (M.W. 12 kDa, Sigma-Aldrich). Each sealed dialysis bag was immersed in 50 mL of PBS (pH 6.8) in a shaking incubator at 37 ± 0.5°C and 100 rpm. Samples were withdrawn from the release medium at specified intervals and replaced with fresh buffer to maintain sink conditions. […] As a control, the release of free THQ and free NTZ was measured under the same conditions. All measurements were performed in triplicate.

[6] = 7th day PI (start of treatment), immunosuppressed mice, oral
[7] = 14th day PI, NTZ forms 100 mg/kg/day 5 days, THQ forms and CsNPs 200 mg/kg three times a week, oral from 7 dpi
[8] = 21th day PI, NTZ forms 100 mg/kg/day 5 days, THQ forms and CsNPs 200 mg/kg three times a week, oral from 7 dpi

Row | SMILES | IFN-γ serum level, Mean ± SE ([1]; 14 days post-infection) | IFN-γ serum level, Mean ± SE ([1]; 21 days post-infection) | Count of Cryptosporidium oocysts per gram stool, Mean ± SE [2, 6] | I % (percent inhibition of oocyst count) ([2]; 14th day PI) [%] | Count of Cryptosporidium oocysts per gram stool, Mean ± SE [2, 7] | I% (percent inhibition of oocyst count, effectiveness) ([2]; 21th day PI) [%] | Count of Cryptosporidium oocysts per gram stool, Mean ± SE [2, 8] | Spleen histopathological findings [3] | leishmanicidal activity [4] | drug release ([5]; after 12 hours) [%] | drug release ([5]; first eight hours) [%]
1 | CC1=CC(=O)C(C(C)C)=CC1=O [THQ, 2-isopropyl-5-methyl-1,4-benzoquinone] | 36.8 ± 1.5 ^b | 29.3 ± 0.6 ^ab | 300 ± 3.1 ^Aa x10^3 per gram stool | 75 | 78 ± 1.5 ^Bd x10^3 per gram stool | 77 | 72 ± 2.6 ^Cd x10^3 per gram stool | partial improvement with mild hyperplasia of lymphoid elements | significant leishmanicidal activity | 100 | –
2 | CC(=O)Oc1ccccc1C(=O)Nc1ncc([N+](=O)[O-])s1 [NTZ, nitazoxanide, reference compound] | 37.1 ± 1.2 ^b | 28.1 ± 1.3 ^b | 307.3 ± 3 ^Aa x10^3 per gram stool | 53 | 146.8 ± 2.9 ^Bc x10^3 per gram stool | 54 | 145.5 ± 2.6 ^Bc x10^3 per gram stool | partial improvement with mild hyperplasia of lymphoid elements | – | – | 100
